Reference: US10787447B2, “Pharmaceutical compounds” (Heptares Therapeutics Limited, priority 2018, dated 2020)

How the values were obtained:
Type in all cases: cell-based
[1] = molecular target: T1, human muscarinic M1 receptor (Homo sapiens, UniProt P11229); assay: Alphascreen Surefire phospho-ERK1/2 functional assay, M1; conditions: for % Emax cf. ACh, M1: CHO cells stably expressing human M1; for EC50: pEC50 M1, CHO cells stably expressing human M1, phospho-ERK1/2
T1 sequence (P11229 1-460): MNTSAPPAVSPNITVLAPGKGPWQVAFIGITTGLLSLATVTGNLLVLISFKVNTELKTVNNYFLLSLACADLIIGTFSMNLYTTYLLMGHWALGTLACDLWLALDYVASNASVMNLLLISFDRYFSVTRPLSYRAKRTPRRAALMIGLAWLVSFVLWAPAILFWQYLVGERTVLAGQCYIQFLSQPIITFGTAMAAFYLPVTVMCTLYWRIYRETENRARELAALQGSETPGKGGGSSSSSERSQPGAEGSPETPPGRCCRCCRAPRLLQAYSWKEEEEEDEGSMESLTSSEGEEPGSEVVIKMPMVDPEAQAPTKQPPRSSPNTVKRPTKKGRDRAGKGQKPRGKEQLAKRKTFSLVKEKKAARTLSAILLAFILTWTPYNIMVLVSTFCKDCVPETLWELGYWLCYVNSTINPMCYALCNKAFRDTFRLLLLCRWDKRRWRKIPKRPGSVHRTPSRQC
How it was run: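 Stably transfected CHO cells, serum-starved overnight, then exposed to agonist for 5 min at 37 °C. Cells lysed and phospho-ERK1/2 measured by AlphaScreen SureFire.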

[2] = molecular target: T2, human muscarinic M2 receptor (Homo sapiens, UniProt P08172); assay: Alphascreen Surefire phospho-ERK1/2 functional assay, M2; conditions: for % Emax cf. ACh, M2: CHO cells stably expressing human M2; for EC50: pEC50 M2, CHO cells stably expressing human M2, phospho-ERK1/2
T2 sequence (P08172 1-466): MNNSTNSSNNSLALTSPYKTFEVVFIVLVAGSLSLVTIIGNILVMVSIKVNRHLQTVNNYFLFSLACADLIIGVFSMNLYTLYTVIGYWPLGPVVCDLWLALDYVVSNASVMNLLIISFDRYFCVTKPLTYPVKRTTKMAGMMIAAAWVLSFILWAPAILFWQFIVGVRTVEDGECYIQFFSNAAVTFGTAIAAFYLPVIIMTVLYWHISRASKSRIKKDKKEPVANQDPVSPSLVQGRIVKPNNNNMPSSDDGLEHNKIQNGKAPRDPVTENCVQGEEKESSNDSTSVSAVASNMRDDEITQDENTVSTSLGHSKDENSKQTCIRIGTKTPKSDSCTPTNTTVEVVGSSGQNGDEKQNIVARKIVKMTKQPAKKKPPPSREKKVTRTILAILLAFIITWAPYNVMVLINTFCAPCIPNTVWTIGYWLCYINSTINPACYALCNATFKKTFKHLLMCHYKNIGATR
How it was run: (§1)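 CHO cells stably expressing human M1, M2, M3 or M4 receptor, serum-starved overnight, then stimulated with agonist for 5 min at 37 °C. Cells lysed for 15 min and phospho-ERK1/2 detected in the lysate by AlphaScreen SureFire.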

[3] = molecular target: T3, human muscarinic M3 receptor (Homo sapiens, UniProt P20309); assay: Alphascreen Surefire phospho-ERK1/2 functional assay, M3; conditions: for % Emax cf. ACh, M3: CHO cells stably expressing human M3; for EC50: pEC50 M3, CHO cells stably expressing human M3, phospho-ERK1/2
T3 construct: expressed in transfected cells
T3 sequence (P20309 whole entry): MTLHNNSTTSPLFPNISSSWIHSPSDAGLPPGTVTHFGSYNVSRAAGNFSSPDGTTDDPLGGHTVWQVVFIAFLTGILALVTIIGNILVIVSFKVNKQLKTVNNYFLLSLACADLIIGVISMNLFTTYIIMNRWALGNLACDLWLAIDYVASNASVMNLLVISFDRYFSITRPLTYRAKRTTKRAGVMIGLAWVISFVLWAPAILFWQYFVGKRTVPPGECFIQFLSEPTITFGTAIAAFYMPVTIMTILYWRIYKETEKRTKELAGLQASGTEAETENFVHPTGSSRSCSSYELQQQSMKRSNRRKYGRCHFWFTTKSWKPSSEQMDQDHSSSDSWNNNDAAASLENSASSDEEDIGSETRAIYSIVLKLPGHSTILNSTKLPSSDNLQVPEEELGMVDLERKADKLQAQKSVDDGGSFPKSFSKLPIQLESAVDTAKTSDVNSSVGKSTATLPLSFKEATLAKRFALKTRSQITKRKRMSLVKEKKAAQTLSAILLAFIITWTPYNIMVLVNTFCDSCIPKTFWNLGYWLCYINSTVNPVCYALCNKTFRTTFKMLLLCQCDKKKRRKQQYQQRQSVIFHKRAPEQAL
How it was run: as §1

[4] = molecular target: T4, human muscarinic M4 receptor (Homo sapiens, UniProt P08173); assay: Alphascreen Surefire phospho-ERK1/2 functional assay, M4; conditions: for % Emax cf. ACh, M4: CHO cells stably expressing human M4; for EC50: pEC50 M4, CHO cells stably expressing human M4, phospho-ERK1/2
T4 sequence (P08173 1-479): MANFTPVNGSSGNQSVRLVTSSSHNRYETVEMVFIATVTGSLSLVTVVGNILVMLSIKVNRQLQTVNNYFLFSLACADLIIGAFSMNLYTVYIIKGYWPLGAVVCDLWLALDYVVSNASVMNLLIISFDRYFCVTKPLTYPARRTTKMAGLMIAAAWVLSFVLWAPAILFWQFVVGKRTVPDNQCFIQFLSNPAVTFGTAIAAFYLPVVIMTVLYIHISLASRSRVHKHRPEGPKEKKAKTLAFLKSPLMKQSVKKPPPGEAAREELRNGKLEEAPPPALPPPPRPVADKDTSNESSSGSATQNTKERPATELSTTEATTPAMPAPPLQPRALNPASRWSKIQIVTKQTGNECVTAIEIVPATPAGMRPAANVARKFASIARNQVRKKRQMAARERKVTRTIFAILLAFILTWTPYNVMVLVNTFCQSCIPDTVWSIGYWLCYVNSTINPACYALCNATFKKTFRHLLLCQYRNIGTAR
How it was run: as §1

[5] = Emax relative to ACh, listed as 6-7 Isomer 1
[6] = Emax relative to ACh, listed as 6-7 Isomer 2

SMILES: CCOC(=O)N1C2COCC1CC(N1CCC(N3CCCCCC3=O)CC1)C2 (single isomer, unassigned) [Example 6-7 Isomer 1, Ethyl 7-[4-(2-oxoazepan-1-yl)piperidin-1-yl]-3-oxa-9-azabicyclo[3.3.1]nonane-9-carboxylate]
- % Emax cf. ACh, M1 [1, 5]: 111%
- EC50 [1]: 646 nM
- % Emax cf. ACh, M2 [2, 5]: 87%
- EC50 [2]: 1020 nM
- % Emax cf. ACh, M3 [3, 5]: 28%
- EC50 [3]: > 20000 nM
- % Emax cf. ACh, M4 [4, 5]: 105%
- EC50 [4]: 75.9 nM

SMILES: CCOC(=O)N1C2COCC1CC(N1CCC(N3CCCCCC3=O)CC1)C2 (single isomer, unassigned) [Example 6-7 Isomer 2, Ethyl 7-[4-(2-oxoazepan-1-yl)piperidin-1-yl]-3-oxa-9-azabicyclo[3.3.1]nonane-9-carboxylate]
- % Emax cf. ACh, M1 [1, 6]: 41%
- EC50 [1]: 2190 nM
- % Emax cf. ACh, M2 [2, 6]: 5%
- EC50 [2]: > 20000 nM
- % Emax cf. ACh, M3 [3, 6]: 2%
- % Emax cf. ACh, M4 [4, 6]: 52%
- EC50 [4]: 174 nM

SMILES: CCOC(=O)N1C2COCC1CC(N1CCC(C(=O)NCC3CCC3)CC1)C2 (single isomer, unassigned) [Example 7-3 Isomer 1, Ethyl 7-{4-[(cyclobutylmethyl)carbamoyl]piperidin-1-yl}-3-oxa-9-azabicyclo[3.3.1]nonane-9-carboxylate]
- Emax ([1]; CHO, read-out: % Emax cf. ACh, M1, CHO cells stably expressing human M1, Emax relative to ACh): 100%
- EC50 [1]: 35.5 nM
- Emax ([2]; CHO, read-out: % Emax cf. ACh, M2, CHO cells stably expressing human M2, Emax relative to ACh): 62%
- EC50 [2]: 1480 nM
- Emax ([3]; CHO, read-out: % Emax cf. ACh, M3, CHO cells stably expressing human M3, Emax relative to ACh): 57%
- EC50 [3]: > 20000 nM
- Emax ([4]; CHO, read-out: % Emax cf. ACh, M4, CHO cells stably expressing human M4, Emax relative to ACh): 97%
- EC50 [4]: 275 nM
